Results published in patent US20260258049A1, “Molecules and Methods Related to Treatment of Uncontrolled Cellular Proliferation” (ST. JUDE CHILDREN'S RESEARCH HOSPITAL, priority 2019, published 2026).
Where two headings read alike, the source gives them in different places.

Columns and labels:
[1] = test system: Human CD45+ leukemic cells purified from patient derived xenografts (PDX)
MHH-CALL-4 = assay: Cytotoxicity assay (resazurin, 72 hours); format: cell-based, human
GSPT1 = biological target: T1, GSPT1 (Homo sapiens, UniProt P15170); assay: Immunoblot protein degradation in MHH-CALL-4 cells; format: cell-based
T1 construct: degradation of JAK2 and GSPT1 in MHH-CALL-4 cells; endogenous in cells; host or cells: MHH-CALL-4
Experimental: Cells were washed twice with ice-cold PBS and lysed in RIPA lysis buffer (Sigma) freshly supplemented with Halt™ Protease Inhibitor Cocktail (ThermoFisher) for 15 minutes on ice. The cell pellet was removed by centrifugation at 13,000 g at 4° C. for 15 minutes. Protein concentration was measured by BCA assay (Thermo Fisher Scientific). Proteins were denatured in NuPAGE LDS 4× sample buffer supplemented with reducing agents (Invitrogen). Typically, 10-20 µg of total protein was loaded per lane on a 4%-12% NuPAGE Bis-Tris gradient gel (Invitrogen) and analyzed by standard immunoblotting and imaged using Li-COR Odyssey CLx (LI-COR Biotechnology, Lincoln, NE). Primary antibodies used were: JAKI (Cell Signaling #3332S), JAK2 (#3230S), JAK3 (#8827S), TYK2 (#9312S), GSPT1 (#14980S), CRBN (#71810S), IKZF1 (Santa Cruz Biotechnology, SC-398265) and ACBT (Santa Cruz Biotechnology, SC-47778).

JAK2 = biological target: T2, JAK2 (Homo sapiens, UniProt O60674, I682F); assay: Immunoblot protein degradation in MHH-CALL-4 cells; format: cell-based
T2 construct: degradation of JAK2 and GSPT1 in MHH-CALL-4 cells; endogenous in cells; host or cells: MHH-CALL-4

[2] = test system: JAK-STAT5 signaling pathway; assay: Phosphoflow analysis in MHH-CALL-4 cells with or without TSLP; format: cell-based, human; conditions: 1 μM, one hour before TSLP 25 ng/mL for 30 minutes
Caco-2 cells = assay: Caco-2 cell permeability; format: in vitro ADME
Experimental: Compound Caco-2 cell permeability was determined using the Transwell® 0.4 μm polycarbonate membrane 96-well as described before (Uchida, et al. (2009) J Pharmacol Toxicol Methods 59(1): 39-43). Briefly, Caco-2 cells monolayers were incubated over 2 hours at 37° C. Fractions were collected from receivers (basal side, B), and concentrations were assessed by UPLC/MS (Waters; Milford, MA). All compounds were tested in triplicates. The A→B (or B→A) apparent permeability coefficients (Papp) of each compound were calculated using the equation, Papp=dQ/dt×1/AC0, where dQ/dt equals the flux of a drug across the monolayer, A equals the total insert well surface area, and CO is the initial concentration of substrate in the donor compartment.

T2 sequence (O60674 whole entry I682F): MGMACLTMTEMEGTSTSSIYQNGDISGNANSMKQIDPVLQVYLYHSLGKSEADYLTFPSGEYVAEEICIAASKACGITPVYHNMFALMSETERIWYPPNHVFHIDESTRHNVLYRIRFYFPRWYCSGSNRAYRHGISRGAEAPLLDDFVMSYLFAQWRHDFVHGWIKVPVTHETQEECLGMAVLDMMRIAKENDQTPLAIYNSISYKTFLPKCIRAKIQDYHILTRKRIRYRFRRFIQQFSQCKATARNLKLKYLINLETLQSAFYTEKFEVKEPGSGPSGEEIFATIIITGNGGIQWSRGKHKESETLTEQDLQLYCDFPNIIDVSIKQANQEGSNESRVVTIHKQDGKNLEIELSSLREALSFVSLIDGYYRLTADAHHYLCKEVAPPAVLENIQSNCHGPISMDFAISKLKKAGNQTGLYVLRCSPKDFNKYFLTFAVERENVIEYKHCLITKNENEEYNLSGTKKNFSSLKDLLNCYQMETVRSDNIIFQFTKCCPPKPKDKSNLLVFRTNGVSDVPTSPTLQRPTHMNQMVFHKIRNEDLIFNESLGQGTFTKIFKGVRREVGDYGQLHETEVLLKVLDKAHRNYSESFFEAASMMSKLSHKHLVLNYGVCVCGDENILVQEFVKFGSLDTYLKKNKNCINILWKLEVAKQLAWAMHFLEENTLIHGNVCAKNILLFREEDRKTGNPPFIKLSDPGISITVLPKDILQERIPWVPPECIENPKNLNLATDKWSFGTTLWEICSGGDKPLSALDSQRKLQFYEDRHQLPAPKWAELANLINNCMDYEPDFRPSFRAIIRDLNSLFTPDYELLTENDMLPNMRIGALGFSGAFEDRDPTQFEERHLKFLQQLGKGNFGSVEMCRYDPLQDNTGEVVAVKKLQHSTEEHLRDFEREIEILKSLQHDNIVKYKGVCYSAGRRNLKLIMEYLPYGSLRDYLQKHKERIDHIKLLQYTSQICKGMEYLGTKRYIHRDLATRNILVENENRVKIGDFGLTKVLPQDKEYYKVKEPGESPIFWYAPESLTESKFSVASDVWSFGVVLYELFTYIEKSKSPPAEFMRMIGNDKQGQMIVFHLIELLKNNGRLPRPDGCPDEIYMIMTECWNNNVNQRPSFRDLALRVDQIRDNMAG
T1 sequence (P15170 whole entry): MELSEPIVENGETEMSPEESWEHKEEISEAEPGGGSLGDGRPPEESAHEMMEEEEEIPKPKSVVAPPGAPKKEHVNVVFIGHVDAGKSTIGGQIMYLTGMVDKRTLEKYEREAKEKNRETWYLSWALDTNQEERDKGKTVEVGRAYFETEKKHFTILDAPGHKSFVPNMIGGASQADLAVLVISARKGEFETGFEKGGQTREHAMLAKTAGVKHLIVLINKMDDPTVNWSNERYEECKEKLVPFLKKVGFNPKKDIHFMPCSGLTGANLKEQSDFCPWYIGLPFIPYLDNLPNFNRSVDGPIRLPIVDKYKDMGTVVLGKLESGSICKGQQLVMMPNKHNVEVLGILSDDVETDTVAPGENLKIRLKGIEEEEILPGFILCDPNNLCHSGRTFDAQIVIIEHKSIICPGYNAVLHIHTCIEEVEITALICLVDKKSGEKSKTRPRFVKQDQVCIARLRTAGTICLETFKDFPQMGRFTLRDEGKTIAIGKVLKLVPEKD

SMILES	extent of degradation of GSPT1 (GSPT1)	extent of degradation of JAK2 (JAK2)	cytotoxicity in PDX cells ex vivo [1]	killing of MHH-CALL-4 cells / cytotoxicity, in words (MHH-CALL-4)	other results
CC(=O)Nc1cc(Oc2ccc3c(nc(Nc4ccc(F)cc4F)n3C)c2C)ccn1 [CHZ868, reference compound]			not		
CNCCCN1CCN(c2ccc3c(c2)C(=O)N(C2CCC(=O)NC2=O)C3=O)CC1 (stereo not shown) [Cmpd. no. 56]		preferential		intermediately effective	
CCS(=O)(=O)N1CC(CC#N)(n2cc(-c3nc(Nc4ccc(C(=O)NCCCCNc5cccc6c5C(=O)N(C5CCC(=O)NC5=O)C6=O)cc4)nc4[nH]ccc34)cn2)C1 (stereo not shown) [Compound 6]			show cytotoxicity		EC50 (MHH-CALL-4; Table 6, no star, read-out: HHCALL4 (nM), MHHCALL4 EC50): 1.52 nM; JAK inhibition (phosphoflow) [2]: comparable JAK inhibition
CCS(=O)(=O)N1CC(CC#N)(n2cc(-c3nc(Nc4ccc(C(=O)NCCN5CCN(c6ccc7c(c6)C(=O)N(C6CCC(=O)NC6=O)C7=O)CC5)cc4)nc4[nH]ccc34)cn2)C1 (stereo not shown) [Compound 8]				intermediately effective	killing of MHH-CALL-4 cells / cytotoxicity, in words (MHH-CALL-4; listed as compound 8): reduced activity
N#CC[C@H](C1CCCC1)n1cc(-c2ncnc3[nH]ccc23)cn1 [Ruxolitinib, reference compound]					EC50 (MHH-CALL-4; Homo sapiens, MHHCALL4, read-out: HHCALL4 (nM), MHHCALL4 EC50): 5800 nM
CCCn1cc(-c2nc(Nc3ccc(C(=O)NCCCCNc4cccc5c4C(=O)N(C4CCC(=O)NC4=O)C5=O)cc3)nc3[nH]ccc23)cn1 (stereo not shown) [SJ000988497]					Papp, Caco-2 assay (Caco-2 cells): 1.912 ×10⁻⁶ cm/s

Now from value to compound, other results behind:

extent of degradation of GSPT1 (GSPT1)	extent of degradation of JAK2 (JAK2)	SMILES	cytotoxicity in PDX cells ex vivo [1]	killing of MHH-CALL-4 cells / cytotoxicity, in words (MHH-CALL-4)	other results
preferential		CC(=O)NCCCNc1ccc2c(c1)C(=O)N(C1CCC(=O)NC1=O)C2=O (stereo not shown) [Cmpd. no. 53]		intermediately effective	
minimal activity on either target	minimal activity on either target	CC(=O)NCCCNC(=O)COc1cccc2c1C(=O)N(C1CCC(=O)NC1=O)C2=O (stereo not shown) [Cmpd. no. 59]		relatively low activity	
minimal activity on either target	minimal activity on either target	CNCCCCNc1ccc2c(c1)C(=O)N(C1CCC(=O)NC1=O)C2=O (stereo not shown) [Cmpd. no. 80]		relatively low activity	
degradation of GSPT1 was observed		N#CC[C@H](C1CCCC1)n1cc(-c2nc(Nc3ccc(C(=O)NCCCCNc4cccc5c4C(=O)N(C4CCC(=O)NC4=O)C5=O)cc3)nc3[nH]ccc23)cn1 (stereo partly shown) [Compound 5]	show cytotoxicity		EC50 (MHH-CALL-4; Homo sapiens, MHHCALL4, Table 6, no star, read-out: HHCALL4 (nM), MHHCALL4 EC50): 784 nM; JAK inhibition (phosphoflow) [2]: comparable JAK inhibition
